Source: patent US6756370B1, “Piperidine alcohols” (Merck Patent GmbH, priority 1999, dated 2004)
pIC50: −log10 of the molar value. Where a name gives a salt, the structure may show the parent alone. Read-outs that look alike come from different tables or passages of the source.

What was measured:
5-HT2A receptors = target: T1, 5-HT2A receptors (Rattus norvegicus, UniProt P14842); assay: 5-HT2A receptor binding test ([3H]ketanserin displacement)
T1 construct: Frontal rat cortex is homogenized in ice-cold buffer; from tissue; host or cells: rat frontal cortex homogenate (membrane pellet)
Description: For the in-vitro detection of the affinity for 5-HT2A receptors, it is possible to use, for example, the following test (Example A1). The 5-HT2A receptors are exposed to both [^3H]ketanserin (a substance known for its affinity for the receptor) and the test compound. The decrease in the binding of [^3H]ketanserin to the receptor is a sign of the affinity of the test substance for the 5-HT2A receptor. Detection is carried out analogously to the description of J. E. Leysen et al., Molecular Pharmacology, 1982, 21: 301-314 or as also described, for example, in EP 0320983.
Preparation of a suspension of 5-HT2A receptors: Frontal rat cortex is homogenized in ice-cold buffer. The homogenate is centrifuged for 10 minutes at 4° C. and 50,000×[sic]. The pellet is resuspended in 2.5 ml of ice-cold tris buffer, made up with 10 ml of additional buffer and centrifuged as described [lacuna]. The pellet is then resuspended in buffer and diluted to give a homogenate which contains 60 mg of material/ml. 0.1 ml of the suspension, 100 μl of a 5 nM solution of [^3H]ketanserin, 100 μl of a solution of the test compound (concentration in the range from 10^−5 to 10^−10 mol per litre) are added to the incubation tubes and made up to 1 ml with buffer. The tubes are incubated for 15 minutes at 37° C. After termination of the incubation by immersing the tubes in an ice bath, the cooled suspension is filtered through a glass filter in vacuo. The filters are washed 3× with 5 ml of cold buffer and then transferred to scintillation tubes. The filters are analysed by means of liquid scintillation spectrometry in 8 ml of Triton X scintillator fluid.
The IC50 values are indicated for the binding tests.

[1] = system: DOI-induced head-twitching in mice; assay: DOI-induced head-twitching in mice (DOI antagonism); assay type: in vivo; details: male mice, test compound orally, 30 minutes later 3 mg/kg of DOI intraperitoneally, observed for 15 minutes
Excerpt: Serotonin-2(5-HT2)agonists such as 1-(2,5-dimethoxy-4-iodophenyl)-2-aminopropane (DOI) induce sterotypic behaviour patterns such as, for example, head-twitching or ear-scratching in various animals such as, for example, mice or rats (N. A. Darmani et al., Pharmacol. Biochem. Behav. 1989, 36: 901-906; N. A. Darmani et al., Pharmacol. Biochem. Behav. 1990, 37: 95-99; N. A. Darmani et al., Pharmacol. Biochem. Behav. 1994, 48: 383-396; D. L. Willins and H. Y. Meltzer, J. Pharmacol. Exp. Ther., 1997, 282: 699-706).
DOI-induced head-twitching in mice is used in order to test compounds having 5-HT2A antagonistic properties. The test compound is orally administered to male mice. 30 minutes later, 3 mg/kg of DOI is [sic] are administered intraperitoneally. The animals are observed for 15 minutes and the number of head twitches is noted. Quantification of the in vivo antagonistic effect of the test compounds ensues by comparison with the number of head twitches from those investigations in which the animals were only DOI-treated.

[2] = frontal rat cortex homogenate, 15 minutes at 37° C.

T1 sequence (P14842 whole entry): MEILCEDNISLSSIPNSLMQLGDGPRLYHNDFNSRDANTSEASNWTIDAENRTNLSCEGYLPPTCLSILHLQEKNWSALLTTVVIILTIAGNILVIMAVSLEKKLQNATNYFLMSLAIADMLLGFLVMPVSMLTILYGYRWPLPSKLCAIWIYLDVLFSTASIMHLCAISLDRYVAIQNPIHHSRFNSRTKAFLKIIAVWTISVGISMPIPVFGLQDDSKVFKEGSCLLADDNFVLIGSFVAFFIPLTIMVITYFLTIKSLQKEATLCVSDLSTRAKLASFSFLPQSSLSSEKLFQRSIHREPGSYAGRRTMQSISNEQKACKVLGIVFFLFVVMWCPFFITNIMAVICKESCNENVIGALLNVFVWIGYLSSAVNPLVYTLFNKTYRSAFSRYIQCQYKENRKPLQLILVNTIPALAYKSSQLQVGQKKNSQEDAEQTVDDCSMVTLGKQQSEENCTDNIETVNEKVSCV

Compound | pIC50 (5-HT2A receptors; read-out: IC50 values (concentrations in mol/l at which 50% of the radioactive ligands are displaced from the binding sites), frontal rat cortex homogenate, 15 minutes at 37° C.) | pIC50 (5-HT2A receptors; [2]) | melting point [°C] | Inhibition [%], suppression of behaviour elicited (head-twitching in mice), DOI antagonism [1] [%]
1-{1-[2-(2,3-dimethoxy-phenyl)ethyl]piperidin-4-yl}-1-(4-fluorophenyl)ethanol, hydroiodide | 7.96 | – | – | –
Cc1cc(CCN2CCC(C(C)(O)c3ccc(F)cc3)CC2)sc1Cl (racemic) | – | 8.38 | – | –
Cc1nc(CCN2CCC(C(C)(O)c3ccc(F)cc3)CC2)cs1 (racemic) | – | 7.18 | – | –
Cc1ccccc1CCN1CCC(C(C)(O)c2ccc(C(F)(F)F)cc2)CC1 (racemic) | – | 8.85 | – | –
CC(O)(c1ccc(F)cc1)C1CCN(CCc2ccc(Cl)cc2Cl)CC1 (racemic) | – | 8.70 | – | –
CC(O)(c1ccc(F)cc1)C1CCN(CCc2ccc(F)cc2F)CC1 (racemic) | – | 9.08 | – | –
CC(O)(c1ccc(F)cc1)C1CCN(CCc2cc(Cl)sc2Cl)CC1 (racemic) | – | 8.66 | – | –
CC(O)(c1ccc(F)cc1)C1CCN(CCc2ccc(C#N)cc2)CC1 (racemic) | – | 7.57 | – | –
CC(O)(c1ccc(F)cc1)C1CCN(CCc2ccc(C(F)(F)F)cc2)CC1 (racemic) | – | 7.49 | – | –
CC(O)(c1ccc(F)cc1)C1CCN(CCc2ccc(Br)s2)CC1 (racemic) | – | 8.41 | – | –
CC(O)(c1ccc(F)cc1F)C1CCN(CCc2ccc(Cl)s2)CC1 (racemic) | – | 8.26 | – | –
CC(O)(c1ccc(C(F)(F)F)cc1)C1CCN(CCc2ccc(Cl)s2)CC1 (racemic) | – | 8.07 | – | –
COc1ccc(CCN2CCC(C(C)(O)c3ccc(F)cc3)CC2)s1 (racemic) | – | 7.68 | – | –
Cc1ccc(CCN2CCC(C(C)(O)c3ccc(F)cc3)CC2)s1 (racemic) | – | 9.05 | – | –
CC(O)(c1ccc(F)cc1)C1CCN(CCc2ccsc2)CC1 (racemic) | – | 8.66 | – | –
CC(O)(c1ccc(Cl)cc1)C1CCN(CCc2ccc(F)cc2)CC1.Cl (racemic) [1-{1-[2-(4-fluorophenyl)ethyl]piperidin-4-yl}-1-(4-chlorophenyl)ethanol, hydrochloride] | – | 8.89 | 201 to 203 | 96
CC(O)(c1ccc(F)cc1)C1CCN(CCc2ccc(F)cc2)CC1 (racemic) [1-{1-[2-(4-fluorophenyl)ethyl]piperidin-4-yl}-1-(4-fluorophenyl)ethanol] | – | 8.89 | 122 to 123 | –
CC(O)(c1ccc(Cl)s1)C1CCN(CCc2ccc(F)cc2)CC1 (racemic) [1-{1-[2-(4-fluorophenyl)ethyl]piperidin-4-yl}-1-(5-chlorothiophen-2-yl)ethanol] | – | 9.12 | 159 to 160 | 26

Compound | pIC50 (5-HT2A receptors; read-out: IC50 values (concentrations in mol/l at which 50% of the radioactive ligands are displaced from the binding sites), frontal rat cortex homogenate, 15 minutes at 37° C.) | pIC50 (5-HT2A receptors; [2]) | melting point [°C] | Inhibition [%], suppression of behaviour elicited (head-twitching in mice), DOI antagonism [1] [%]
CC(O)(c1cccc2c1OCCO2)C1CCN(CCc2ccc(F)cc2)CC1.Cl (racemic) [1-{1-[2-(4-fluorophenyl)ethyl]piperidin-4-yl}-1-(benzo[1,4]dioxan-5-yl)ethanol, hydrochloride] | – | 8.43 | 209 to 212 | 9
CC(O)(c1ccc(Cl)cc1)C1CCN(CCc2ccc(Cl)s2)CC1.Cl (racemic) [1-{1-[2-(5-chlorothiophen-2-yl)ethyl]piperidin-4-yl}-1-(4-chlorophenyl)ethanol, hydrochloride] | – | 8.59 | 192 to 193 | 28
CC(O)(c1ccc(F)cc1)C1CCN(CCc2ccc(Cl)s2)CC1 (racemic) [1-{1-[2-(5-chlorothiophen-2-yl)ethyl]piperidin-4-yl}-1-(4-fluorophenyl)ethanol] | – | 9.16 | – | –
CC(O)(c1ccccc1)C1CCN(CCc2ccc(Cl)s2)CC1.I (racemic) [1-{1-[2-(5-chlorothiophen-2-yl)ethyl]piperidin-4-yl}-1-phenylethanol, hydroiodide] | – | 9.08 | 177 to 178 | –
CC(O)(c1ccc(F)cc1)C1CCN(CCc2cccs2)CC1.Cl (racemic) [1-{1-[2-(thiophen-2-yl)ethyl]piperidin-4-yl}-1-(4-fluorophenyl)ethanol, hydrochloride] | – | – | 222 to 223 | –
CC(O)(c1ccccc1)C1CCN(CCc2ccc(F)cc2)CC1.I (racemic) [R1=4-fluorophenyl, R2=phenyl, HI, rac, 1-{1-[2-(4-fluorophenyl)ethyl]piperidin-4-yl}-1-phenylethanol, hydroiodide] | – | 9.17 | 205 to 207 | –
CC(O)(c1ccc(F)cc1)C1CCN(CCc2ccncc2)CC1 (racemic) [R1=4-pyridyl, R2=4-fluorophenyl, rac] | – | 6.66 | – | –
CC(O)(c1ccc(F)cc1)C1CCN(CCc2ccc(F)cc2F)CC1 (single isomer, unassigned) [listing 1 of 2 here] | – | 7.40 | – | –
CC(O)(c1ccc(F)cc1)C1CCN(CCc2ccc(F)cc2F)CC1 (single isomer, unassigned) [listing 2 of 2 here] | – | 8.54 | – | –
CC(O)(c1ccc(F)cc1F)C1CCN(CCc2ccc(F)cc2)CC1 (single isomer, unassigned) [listing 1 of 2 here] | – | 5.66 | – | –
CC(O)(c1ccc(F)cc1F)C1CCN(CCc2ccc(F)cc2)CC1 (single isomer, unassigned) [listing 2 of 2 here] | – | 9.14 | – | –
CC(O)(c1ccc(F)cc1)C1CCN(CCc2ccsc2)CC1 (single isomer, unassigned) [listing 1 of 2 here] | – | 6.60 | – | –
CC(O)(c1ccc(F)cc1)C1CCN(CCc2ccsc2)CC1 (single isomer, unassigned) [listing 2 of 2 here] | – | 8.48 | – | –
CC(O)(c1ccc(F)cc1)C1CCN(CCc2ccc(F)cc2)CC1 (single isomer, unassigned; (+)) [(+)-1-{1-[2-(4-fluorophenyl)ethyl]piperidin-4-yl}-1-(4-fluorophenyl)ethanol, hydrochloride] | – | 9.46 | – | –
CC(O)(c1ccc(F)cc1)C1CCN(CCc2ccc(Cl)s2)CC1.Cl (single isomer, unassigned; (+)) [(+)-1-{1-[2-(5-chlorothiophen-2-yl)ethyl]piperidin-4-yl}-1-(4-fluorophenyl)ethanol, hydrochloride] | – | 8.96 | 210 to 211 | 21
CC(O)(c1ccc(F)cc1)C1CCN(CCc2ccc(F)cc2)CC1.Cl (single isomer, unassigned; (-)) [(−)-1-{1-[2-(4-fluorophenyl)ethyl]piperidin-4-yl}-1-(4-fluorophenyl)ethanol, hydrochloride] | – | 7.24 | 185 to 186 | –
COc1cccc(C(O)C2CCN(CCc3ccc(F)cc3)CC2)c1OC (stereo not drawn) [Comparison from EP 0531410, (+)-α-(2,3-dimethoxyphenyl)-1-[2-(4-fluorophenyl)-ethyl]-4-piperidinemethanol, reference compound] | – | – | – | 0
